Consider five molecules from patent publication US7666989B2 (priority 2003, dated 2010).

Data set [1] has as its system HL-60 (human promyelocytic leukemia cell). The experiment in a line: MTT cytotoxicity, HL-60. The data set is classed as cell-based. The settings on record: 96 h, 4 days. From the text:
(§1) Reagents: RPMI1640 is from GIBCO; MTT is from Bebco. Fetal bovine serum is purchased from Hangzhou SiJiQing Bioengineering Material Co. Ltd. (P. R. China).
(§2) Cell lines: COLO 205 (human colon cancer cell), NCI-H460 (human lung cancer cell), RPMI 8226 (human multiple myeloma cell), U251 (human brain glioma cell) are from ATCC, USA. HL-60 (human promyelocytic leukemia cell), MDA-MB-231, MDA-MB-435 (human breast cancer cell), SCLC (human small-cell lung cancer cell), H125 (human lung cancer cell) and PC-3 (human […] cancer cell).
(§3) The well-grown tumor cells were collected to prepare a cell suspension (1×10^4/ml) with RPMI 1640 medium containing 10% fetal bovine serum. The cell suspension was inoculated into a 96-well plate, 100 μL (containing 1000 tumor cells) per well. The plate was cultured in a 5% CO2 incubator at 37° C. for 24 hours, followed by addition of medicament.
(§4) A blank control and a positive control using 5-fluorouracil or adriamycin are employed in the experiment. […]
(§5) The supernatant was discarded. […] After gently shaking, the OD values were measured by a BIORAD 550 enzyme analyzer, with the detection wavelength being 540 nm and the reference wavelength being 450 nm.
(§6) Dose-response curves were generated by plotting with the cell inhibition rates and different concentrations of medicament, and the half inhibitory concentrations (IC50) were calculated.

The next data set has as its system human brain glioma U251. The source says:
(§7) In this example, the animals used were BALB/c-nu nude mice, 6-8 weeks old. For each experiment, all animals were of the same sex.
(§8) Tumor cell lines: human brain glioma U251, human lung cancer cell line NCI-H460, human colon cancer cell line COLO205 were inoculated from in vitro culture into nude mice subcutaneously, the tumors were subcultured and kept.
(§9) Experimental Procedures: well-grown nude mice carrying well-grown tumors were selected and sacrificed by disjointing neck vertebra. The tumors were removed aseptically and were cut into pieces having a diameter of 2-3 mm by a scalpel. The pieces were inoculated into the axilla of nude mice subcutaneously by a needle. […] The length and width of tumors were measured by a vernier caliper. The animals were then grouped based their tumor sizes. Each group included seven to eight animals.
(§10) The length, width of the tumor and the body weight of the mice were measured twice per week. The tumor volume (TV) and relative tumor volume (RTV) were calculated. A graph indicating the changes of tumor size was plotted. At the end of this experiment, the tumors were taken out and weighed after the mice were sacrificed, and the inhibition rates of the medicament on tumor growth were calculated.
(§11) The formula for calculating tumor volume (TV) is: length×width^2÷2.
(§12) The formula for calculating relative tumor volume (RTV) is: Vt/Vo (wherein Vo is the TV value measured when the administration is started, Vt is the TV value measured after that).
(§13) T-test was used to determine the statistical difference of tumor weights, tumor volumes and RTV etc. between different groups of animal. The index used for evaluating the anti-tumor activity is the relative tumor growth rate T/C (%), the formula for which is: […]
(§14) The evaluation standard for efficacy:
(§15) T/C (%)>60 is ineffective;
(§16) T/C (%)≦60 and P<0.05 after statistical analysis is effective.
The Carmustine (Renmin Pharmaceuticals, Amino Acid Inc. Tianjin, P. R. China) was used as the positive control, 40 mg/kg, administered by intraperitoneal injection for once. CPT was given to four groups at the doses of 0.6 mg/kg, 1.7 mg/kg, 5.0 mg/kg, 15.0 mg/kg respectively, administered by intraperitoneal injection. The treatment included ten injections.

The subject of data set [2] is human lung cancer NCI-H460. Put plainly: Growth of human lung cancer NCI-H460 xenograft in nude mice. It is filed as in vivo, BALB/c-nu nude mice. The settings on record: Cyclophosphamide 100 mg/kg i.p., then 80 mg/kg two weeks later. How it is done:
The animals were then grouped based their tumor sizes. Each group included seven to eight animals.
as §14, §15
One additional injection was given at 80 mg/kg two weeks later. […] The treatment contained a total of ten injections.
(In general: Xenograft models place foreign cells or tissue in a host animal.)

Data set [3] has as its system SCLC (human small-cell lung cancer cell). Put plainly: MTT cytotoxicity, SCLC. The data set is classed as cell-based. The settings on record: Homo sapiens, 96 h, 4 days, read-out: IC50.
Text: as §1, §2, §3
A blank control and a positive control using 5-fluorouracil or adriamycin are employed in the experiment. The CPT samples have five concentrations, three parallel wells for each concentration. The cells were cultured in an incubator with 5% CO2 at 37° C. for 4 days. Then the culture medium was removed and 100 μL MTT solution (0.4 mg/ml in RPMI 1640) was added to each well. The plate was incubated at 37° C. for four additional hours.
The supernatant was discarded. 150 μl DMSO was added into each well in order to solubilize Fomazan granulates. After gently shaking, the OD values were measured by a BIORAD 550 enzyme analyzer, with the detection wavelength being 540 nm and the reference wavelength being 450 nm.
as §6

The test system of the next data set is PC-3 (human cancer cell). The experiment in a line: MTT cytotoxicity, PC-3. It is filed as cell-based. The settings on record: Homo sapiens, 96 h, 4 days.
Text: as §1, §2, §3, §4, §5, §6

Data set [4] has as its system H125 (human lung cancer cell). Put plainly: MTT cytotoxicity, H125. The settings on record: Homo sapiens, NCI-H125, 96 h, 4 days, read-out: IC50. The data set is classed as cell-based.
Text: as §1, §2, §3, §4, §5, §6

In data set [5] the test system is MDA-MB-231 (human breast cancer cell). The experiment in a line: MTT cytotoxicity, MDA-MB-231. It is filed as cell-based. The following applies: 96 h, 4 days.
Text: as §1, §2, §3, §4, §5, §6

In data set [6] the test system is RPMI 8226 (human multiple myeloma cell). Put plainly: MTT cytotoxicity, RPMI 8226. The data set is classed as cell-based. The following applies: Homo sapiens, 96 h, 4 days, read-out: IC50.
Text: as §1, §2, §3, §4, §5, §6

For data set [7], the system named is MDA-MB-435 (human breast cancer cell). Put plainly: MTT cytotoxicity, MDA-MB-435. The data set is classed as cell-based. The settings on record: Homo sapiens, 96 h, 4 days, read-out: IC50.
Text: as §1, §2, §3, §4, §5, §6

The subject of data set [8] is U251 (human brain glioma cell). The experiment in a line: MTT cytotoxicity, U251. It is filed as cell-based. The settings on record: U-251, 96 h, 4 days.
Text: as §1, §2, §3, §4, §5, §6

In data set [9] the test system is COLO 205 (human colon cancer cell). Put plainly: MTT cytotoxicity, COLO 205. It is filed as cell-based. The following applies: Homo sapiens, 96 h, 4 days, read-out: IC50.
Text: as §1, §2, §3, §4, §5, §6

Data set [10] has as its system NCI-H460 (human lung cancer cell). Put plainly: MTT cytotoxicity, NCI-H460. The data set is classed as cell-based. The following applies: 96 h, 4 days.
Text: as §1, §2, §3, §4, §5, §6

Data set [11] deals with human colon cancer COLO 205. The following applies: COLO 205 xenograft, hydroxycamptothecin 1 mg/kg i.p. once per day 15 days, then further courses.
Text: as §7, §8, §9, §10, §11, §12, §13, §14, §15, §16
Injectable hydroxycamptothecin (trade name: Xi Su, Wuhan Lishizhen Pharmaceuticals Inc., Huangshi Lishizhen Pharmaceuticals Group, P. R. China) was used as positive control, administered by intraperitoneal injection at the dose of 1 mg/kg, once per day. The administration was terminated after 15 consecutive days of administration. […] A single administration of 80 mg/kg hydroxycamptothecin was further given after two weeks. CPT was given to three treatment groups at the doses of 1.7 mg/kg, 5.0 mg/kg, 15.0 mg/kg respectively by intraperitoneal injection, once per day. The treatment contained a total of 15 injections.

The mark [12] stands for this setting: U251 xenograft, Carmustine 40 mg/kg i.p. once.

Converted amounts (≈) assume the structure as drawn. Marks after values point to notes of the source that are not given here.

`COc1cccc2c1C(=O)c1c(O)c3c(c(O)c1C2=O)C[C@@](O)(C(=O)CO)C[C@@H]3O[C@H]1C[C@H](N)[C@H](O)[C@H](C)O1` [Adr, Adriamycin] gave an IC50 in [1] of 0.006 µg/mL (≈ 0.011 µM).
`O=NN(CCCl)C(=O)NCCCl` [Carmustine, reference compound]: in the data set on human brain glioma U251 (setting [12]), the RTV was 0.54 ± 0.29, the “T/C (%)” value is given as 16.0%, the “Tumor volume (mm^3) End” value is on record as 109 ± 78** mm^3 and the “Tumor weight” value amounted to 0.09 ± 0.06 g. In addition, in the data set on human brain glioma U251 (U251 xenograft, Carmustine 40 mg/kg i.p. once, baseline), the “Tumor volume (mm^3) Start” value is 153 ± 35 mm^3. For the same molecule, the “Inhibition rate (%)” value in the data set on human brain glioma U251 (U251 xenograft, Carmustine 40 mg/kg i.p. once, by tumor weight) came to 93.0%. In the data set with human brain glioma U251 (mouse, in vivo), the “Body Weight (g) End” value came out at 19.4 ± 2.1 g and the “Body Weight (g) Start” value was 22.8 ± 0.7 g.
As to `O=P1(N(CCCl)CCCl)NCCCO1` (stereo not shown) [Cyclophosphamide, reference compound], in [2], the “Body Weight (g) End” value came out at 16.1 ± 2.2 g, the RTV is listed as 3.67 ± 2.15, the “T/C (%)” value turned out to be 61.4% and the “Tumor volume (mm^3) End” value turned out to be 1121 ± 434 mm^3. The “Tumor weight” value in [2] is 0.96 ± 0.35 g. Moreover, in data set [2] (baseline), the “Body Weight (g) Start” value worked out at 20.0 ± 1.3 g and the “Tumor volume (mm^3) Start” value is recorded as 179 ± 52 mm^3. Further, in data set [2] (by tumor weight), the “Inhibition rate (%)” value was determined as 40.4%.
Consider `O=c1[nH]cc(F)c(=O)[nH]1` [Fu, 5-fluorouracil, reference compound], for which the IC50 in data set [3] was 0.617 ± 0.0257 µg/mL (≈ 4.74 µM); with PC-3 (human cancer cell) it was 4.93 ± 0.753 µg/mL (≈ 37.9 µM); in data set [4], 0.138 ± 0.031 µg/mL (≈ 1.06 µM); in data set [5] it was 0.318 ± 0.055 µg/mL (≈ 2.44 µM); in data set [6], < 0.1 µg/mL; in data set [7] it was 0.199 ± 0.138 µg/mL (≈ 1.53 µM). Besides, the results for the IC50 in data set [8], in data set [9] and in [10] were 0.981 ± 0.077 µg/mL (≈ 7.54 µM), 0.826 ± 0.051 µg/mL (≈ 6.35 µM) and 0.566 ± 0.016 µg/mL (≈ 4.35 µM), respectively.
On to `CC[C@@]1(O)C(=O)OCc2c1cc1n(c2=O)Cc2cc3cc(O)ccc3nc2-1` [Hydroxycamptothecin, hydroxycamptothecin, reference compound], for which, in data set [11], the “Body Weight (g) End” value came out at 21.0 ± 2.5 g, the RTV is on record as 3.92 ± 1.91, the “T/C (%)” value is given as 47.2% and the “Tumor volume (mm^3) End” value is listed as 845 ± 66** mm^3. The “Tumor weight” value in data set [11] is on record as 0.66 ± 0.26 g. Further, in [11] (baseline), the “Body Weight (g) Start” value worked out at 20.4 ± 0.9 g and the “Tumor volume (mm^3) Start” value was 150 ± 34 mm^3. Further, in data set [11] (by tumor weight), the “Inhibition rate (%)” value amounted to 66.3%.
